According to patent US9867857B2, “Acetobacter and gluconacetobacter strains and their metabolites for use in inhibiting xanthine oxidase” (Food Industry Research And Development Institute, priority 2014, dated 2018):

Tested on: ICR mice
Test: Experimental uricemia: potassium oxonate-induced high serum uric acid
Type: in vivo
Conditions: potassium oxonate 400 mg/kg + allopurinol 10 mg/kg fed, 1 h after dosing
Experimental: Acetobacter pasteurianus strain AHU01 was inoculated onto an M1A plate and cultured for 2 days at 30° C. The plate was washed with 7 ml of sterile water as seed broth. 0.5 ml of the seed broth was inoculated into 50 ml of a custom media (1% soy peptone, 0.2% yeast extract, 3% glucose, 0.2% malt extract, and 3% fructose) in a 250 ml triangular flask and incubated with shaking at 150 rpm for 7 days at 30° C. The medium was then collected and centrifuged at 3000 rpm for 15 minutes. Following centrifugation, the supernatant was collected, lyophilized, and freeze-dried to form a solid fermentation product for use in animal experiments.
ICR mice were used as experimental animals. Potassium oxonate, a uricase inhibitor, was used to induce a high level of uric acid in the serum of the mice. Mice were fasted for one hour and then fed saline or potassium oxonate (400 mg/kg) via a feeding tube. After one hour, potassium oxonate-treated mice were fed saline, allopurinol (10 mg/kg), or the Acetobacter pasteurianus strain AHU01 fermentation product (150 mg or 200 mg resuspended in saline per mouse) prepared as described above. Ten animals were used for each experimental group and for the control group. The animals were sacrificed after one hour and the level of uric acid in their serum was analyzed.

Structure (SMILES): Oc1ncnc2[nH]ncc12 [allopurinol]
- serum uric acid concentration: 2.82 ± 0.28 mg/dL
